Entries after “also recorded” stand apart in the source; their conditions may differ.
How the values were obtained:
[1] = system: XS52 DC; assay: Cytokine secretion by XS52 DC stimulated with HA fragments (ELISA); assay type: cell-based; conditions: 500 μg/ml; HA fragments 50 μg/ml
Protocol: FIGS. 5A-C. Impact of Pep-1 on HA degradation products. (FIG. 5A) 96 well plates were coated with biotinylated-HA (0.1 μg/ml) and pretreated with 500 μg/ml of Pep-1 (open circles), RP (closed circles), or PBS alone (triangles) for 3 hours. These plates were then incubated for 30 min in the presence of HAase (from bovine testis). After extensive wash, the amounts of remaining biotinylated HA on the plates were determined by addition of streptavidin-alkaline phosphatase followed by p-nitrophenyl phosphate substrate. The % HA digestion was calculated from the optical densities. The data shown are the means+/−s.e.m.from triplicate samples analyzed with a hyperbolic model. (FIG. 5B) The impact of Pep-1 on HA digestion and on cell adhesion was examined in parallel using the HA-coated plates prepared simultaneously. Pep-1, RP, or PBS alone was added to the HA-coated plates as above and their effects on HAase-mediated HA degradation and on the adhesion of ^35S-labeled BW5147 thymoma cells were compared. The data shown are the means+/−s.e.m.(n=3) of 50% inhibition doses of HAase (left) and % cell adhesion (right). […] (FIG. 5C) Low molecular weight HA fragments were prepared by sonication of HMW HA followed by overnight digestion with HAase at 37° C. […] Results are expressed as the means+/−s.e.m.from triplicate samples. […]

[2] = system: HA; conditions: co-pending application 60/126,475; cited from earlier work
[3] = system: HA; assay: Adhesion of 35S-labeled B16-F10 melanoma cells to HA-coated plates; assay type: cell-based, mouse
Protocol: Three different Pep-1 derivatives were compared for their biological activities at the same concentration in terms of the molarity (150 μM) of the 16-mer Pep-1 peptide sequence. […] Data shown are the means+/−S.D. of % binding from quadruplicate samples. Asterisks indicate statistically significant differences (**p<0.01 by two-tailed Student's t-test).
FIGS. 9A-G. DC-associated HA and DC-dependent T cell proliferation. (A) DO11.10 T cells were cultured with y-irradiated splenic DC and/or OVA323-339 (2 μg/ml) in the presence of intact bPG (250 μg/ml), heat-denatured bPG, or PBS alone. Data shown are the means+/−s.d. (n=3) of ^3H-thymidine uptake. (B) DO11.10 T cells were cultured with the indicated numbers of splenic DC and OVA323-339 in the presence of Pep-1 (300 μM) (open circles), RP (closed circles), or PBS alone (squares). (C) Pep-1 (open circles) or PEG-conjugated Pep-1 (open triangles) were compared at the indicated concentrations (in terms of the molarity of the 12-mer Pep-1 sequence) for their abilities to inhibit the adhesion of ^35S-labeled B16 melanoma cells onto the HA-coated plates (Mummert et al. J. Exp. Med. 192:769-779, 2000). […] Statistically significant differences assessed by a two-tailed Student's t-test for comparing two groups or by analysis of variance (ANOVA) followed by LSD for multiple comparisons are indicated by asterisks (*P<0.05, **P<0.01).

[4] = systemic, local, or topical administration; co-pending application; cited from earlier work
[5] = system: HA; assay: Adhesion of 35S-labeled BW5147 thymoma cells to HA-coated plates; assay type: cell-based; conditions: 500 μg/ml pretreatment
Protocol: FIGS. 1A-B. (FIG. 1A) ^35S-labeled BW5147 thymoma cells were incubated on HA-coated plates (0.1 μg/ml) that had been pretreated with the indicated peptides (500 μg/ml). Data shown are the means+/−S.D. of % binding from quadruplicate samples. (FIG. 1B) FITC-conjugated HA (0.3 μg/ml) was preincubation with the indicated peptide (500 μg/ml) and examined for binding to BW5147 thymoma cells. Data shown are the binding of FITC-conjugated HA in the presence of the indicated peptides (closed histograms) as compared to the background autofluorescence levels (open histograms).
FIGS. 5A-C. Impact of Pep-1 on HA degradation products. […] After extensive wash, the amounts of remaining biotinylated HA on the plates were determined by addition of streptavidin-alkaline phosphatase followed by p-nitrophenyl phosphate substrate. The % HA digestion was calculated from the optical densities. The data shown are the means+/−s.e.m.from triplicate samples analyzed with a hyperbolic model. […] Results are expressed as the means+/−s.e.m.from triplicate samples.
To test the impact of Pep-1 on HA degradation, the present inventors developed a 96 well-based assay in which biotinylated HA was immobilized onto the plates and treated with HAase. The amounts of HA that remained attached to the wells was then determined by addition of streptavidin-conjugated alkaline phosphatase (FIG. 5A).

Sequence: GAHWQFNALTVR [Pep-1]
- inhibition of IL-6 secretion triggered by HA fragments [1]: inhibited the secretion of both cytokines almost completely
- inhibition of TNFα secretion triggered by HA fragments [1]: inhibited the secretion of both cytokines almost completely
- inhibition of leukocyte adhesion to HA substrates [2]: inhibited leukocyte adhesion to HA substrates almost completely
- blocking of B16-F10 adhesion to HA-coated plates [3]: blocked efficiently
- inhibition of HA-mediated cell adhesion ([3]; 150 μM in terms of molarity of the Pep-1 peptide sequence): only modest inhibition
- inhibition of contact hypersensitivity responses [4]: inhibited the expression of contact hypersensitivity responses
- inhibition of BW5147 cell adhesion to HA substrate [5]: blocked BW5147 cell adhesion; also recorded: significant (p<0.01 by ANOVA) inhibition of cell adhesion
